Earlier results, collected in patent US20050000529A1, “Method and compositions for imparting cooling effect to tobacco products” (priority 2001, published 2005).
Entries after “also recorded” stand apart in the source; their conditions may differ.

Legend:
[1] = tap water, triangle test
[2] = tap water, triangle test; remark: listed apart in the source
[3] = taste testing; comparison with related compounds

SMILES	Cooling Threshold [1] [mg/kg]	Odor Threshold [2] [mg/kg]	cooling activity (in words) [3]
CC1=C(N2CCCC2)C(=O)CC1 [Compound 1, 3-methyl-2-(1-pyrrolidinyl)-2-cyclopenten-1-one]	29.0 to 43.5	43.5 to 72.5	long lasting sensation of coolness; also recorded: high degree of cooling effect
CC1CC=C(N2CCCC2)C1=O (centres unmarked) [Compound 2, 5-methyl-2-(1-pyrrolidinyl)-2-cyclopenten-1-one]	4.5 to 9.0	2.6 to 5.2	long lasting sensation of coolness; also recorded: high degree of cooling effect
CC1=C(N2CCCCC2)C(=O)CC1 [Compound 3, 3-methyl-2-(1-piperidinyl)-2-cyclopenten-1-one]	60.0 to 100.0	80.0 to 120.0	–
CCN(CC)C1=C(C)CCC1=O [Compound 4, 3-methyl-2-diethylamino-2-cyclopenten-1-one]	30.0 to 50.0	2.0 to 3.0	–
CC1CC=C(N2CCCCC2)C1=O (centres unmarked) [Compound 5, 5-methyl-2-(1-piperidinyl)-2-cyclopenten-1-one]	16.0 to 24.0	12.0 to 20.0	–
CCN(CC)C1=CCC(C)C1=O (centres unmarked) [Compound 6, 5-methyl-2-diethylamino-2-cyclopenten-1-one]	12.0 to 20.0	6.0 to 9.0	does not substantially decrease the cooling activity
CCCCN(CCCC)C1=CCC(C)C1=O (centres unmarked) [Compound 7, 5-methyl-2-dibutylamino-2-cyclopenten-1-one]	48.4 to 67.8	2.4 to 2.8	drastically decreases the cooling activity
CCCCCCN(CCCCCC)C1=CCC(C)C1=O (centres unmarked) [Compound 8, 5-methyl-2-dihexylamino-2-cyclopenten-1-one]	–	–	completely diminishes the cooling activity
CCC1CC=C(N2CCCC2)C1=O (centres unmarked) [Compound 9, 5-ethyl-2-(1-pyrrolidinyl)-2-cyclopenten-1-one]	26.7 to 42.5	13.4 to 22.4	significant increase in cooling activity
CC1C=C(N2CCCC2)C(=O)C1C (centres unmarked) [Compound 10, (E)-4,5-dimethyl-2-(1-pyrrolidinyl)-2-cyclopenten-1-one]	68.0 to 113.3	136.0 to 226.6	significant increase in cooling activity
CC1=C(N2CCCC2)C(=O)C(C)C1 (centres unmarked) [Compound 11, 3,5-dimethyl-2-(1-pyrrolidinyl)-2-cyclopenten-1-one]	32.5 to 53.5	16.0 to 27.0	small effect on cooling activity
CC1=C(N2CCCC2)C(=O)CC1C (centres unmarked) [Compound 12, 3,4-dimethyl-2-(1-pyrrolidinyl)-2-cyclopenten-1-one]	51.3 to 85.5	25.7 to 42.8	–
O=C1C=C(N2CCCC2)CC1 [Compound 13, 3-(1-pyrrolidinyl)-2-cyclopenten-1-one]	–	234.0 to 390.0	loss of cooling activity
CC1=C(N2CCCC2)CCC1=O [Compound 14, 2-methyl-3-(1-pyrrolidinyl)-2-cyclopenten-1-one]	–	92.0 to 138.0	loss of cooling activity
O=C1CCCC=C1N1CCCC1 [Compound 15, 2-(1-pyrrolidinyl)-2-cyclohexen-1-one]	495.0 to 830.0	62.0 to 106.0	significantly decreases cooling activity
CC1=C(N2CCCC2)C(=O)CCC1 [Compound 16, 3-methyl-2-(1-pyrrolidinyl)-2-cyclohexen-1-one]	90.5 to 150.8	45.2 to 75.4	–
CC1=C(N2CCCC2)C(=O)CC(C)(C)C1 [Compound 17, 3,5,5-trimethyl-2-(1-pyrrolidinyl)-2-cyclohexen-1-one]	1605.0 to 2675.0	50.2 to 83.6	–
CC1CCC=C(N2CCCC2)C1=O (centres unmarked) [Compound 18, 6-methyl-2-(1-pyrrolidinyl)-2-cyclohexen-1-one]	26.9 to 44.8	3.4 to 5.6	–
CC1CC(C)(C)C=C(N2CCCC2)C1=O (centres unmarked) [Compound 19, 4,4,6-trimethyl-2-(1-pyrrolidinyl)-2-cyclohexen-1-one]	2213.0 to 3688.0	553.0 to 922.0	significantly decreases cooling activity
CC1CC=C(N2CCOCC2)C1=O (centres unmarked) [Compound 20, 5-methyl-2-(1-morpholino)-2-cyclopenten-1-one]	467.0 to 700.8	935.0 to 1558.0	substantially decreases the cooling effect
COC(=O)C1CCCN1C1=CC[C@H](C)C1=O (stereo partly drawn) [Compound 21, (S)-5-methyl-2-(2-methoxycarbonyl-1-pyrrolidinyl)-2-cyclopenten-1-one]	112.0 to 188.0	–	substantially decreases the cooling effect
CC1=C(N2CCC[C@H]2C(=O)O)C(=O)CC1 [Compound 22, (S)-3-methyl-2-(2-carboxy-l-pyrrolidinyl)-2-cyclopenten-1-one]	490.0 to 735.0	–	substantially decreases the cooling effect
CC1=C(N2CCCC2)C(=O)CO1 [Compound 23, 5-methyl-4-(1-pyrrolidinyl)-3-(2H)-furanone]	1.5 to 3.0	–	strong increase in cooling activity; also recorded: high degree of cooling effect
CC1=C(N2CCCC2)C(=O)C(C)O1 (stereo not drawn) [Compound 24, 2,5-dimethyl-4-(l-pyrrolidinyl)-3-(2H)-furanone]	100.0 to 140.0	30.0 to 60.0	–
CC1=C(N2CCCC2)C(=O)OC1 [Compound 25, 4-methyl-3-(1-pyrrolidinyl)-2-(5H)-furanone]	0.05 to 0.06	–	dramatically increases cooling activity; also recorded: high degree of cooling effect
CC1=C(N2CCCC2)C(=O)OC1C (centres unmarked) [Compound 26, 4,5-dimethyl-3-(1-pyrrolidinyl)-2-(5H)-furanone]	2.0 to 4.0	32.0 to 64.0	dramatically increases cooling activity
